According to patent US8980846B2, “Composition containing styraxlignolide A or the aglycone thereof as an active ingredient for preventing or treating asthma” (Korea Research Institute of Bioscience and Biotechnology, priority 2010, dated 2015):

How the values were obtained:
Assay type in all cases: in vivo, Balb/c female mice
[1] = system: inflammatory cells in bronchoalveolar lavage fluid; test: Inflammatory cell counts in bronchoalveolar lavage fluid (Diff-Quick staining); details: asthma-induced mice, homoegonol study, bronchoalveolar lavage fluid
Method: (§1) To prepare bronchial asthma-induced experimental animals, six-week-old Balb/c female mice of mean weight about 20 g were used. After one week of adaptation, individuals which had no observed abnormality on a basic physical examination were targeted. 200 μL of phosphate buffered saline (PBS)(pH 7.4) in which 2 mg of aluminum hydroxide (A8222, Sigma, St. Louis, Mo.) and 20 μg of ovalbumin (A5503, Sigma, St. Louis, Mo.) were suspended was injected into the peritoneal cavity at two-week intervals to result in sensitization. On days 28 to 30 after the first intraperitoneal administration of ovalbumin, inhalation challenge was performed for 30 min with 1% ovalbumin using an ultrasonic atomizer. 24 hours after the last antigen administration, airway hyperresponsiveness was measured. After 24 hours, a lethal dose of pentobarbital (Entobar®, Hanlim Pharm Co., Ltd.) was administered, body weight measurement and bronchotomy were performed, and bronchoalveolar lavage was performed with a total 1.2 mL of physiological saline, and then, samples were collected. […] Eight white mice were used for each group. Experimental groups for homoegonol were a group (hE7.5) in which animals were orally administered with 7.5 mg/kg homoegonol 1 hour prior to ovalbumin inhalation, a group (hE15) in which animals were orally administered with 15 mg/kg homoegonol 1 hour prior to ovalbumin inhalation, and a group (hE30) in which animals were orally administered with 30 mg/kg homoegonol 1 hour prior to ovalbumin inhalation, and five white mice were used for each group.
Bronchoalveolar lavage fluid was collected from individuals of each experimental group in <Example 2> and right after the collection, fluid was stained with trypan blue. The number of total cells except dead cells was calculated using a hemocytometer. Then, Diff-Quick staining (Sysmex, Swizerland) was performed after smear preparation with Cytospin II, and eosinophils and other inflammatory cells were differentially counted.
To examine the effect of homoegonol on asthma, variation in the numbers of asthma-related inflammatory cells was measured according to the method in <Experimental Example 3>.

ovalbumin-specific IgE = test: IgE levels in serum and bronchoalveolar lavage fluid (ELISA); details: asthma-induced mice, homoegonol study; for Total serum IgE level: Table 2
Method: as §1
To measure serum and bronchoalveolar lavage fluid ovalbumin-specific IgE levels caused by administration of styraxlignolide A, an immunoenzyme technique was used. 20 μg/mL of ovalbumin was dissolved in a 0.1 M NAHCO3 buffer (pH 8.3), and was placed into a 96-well flat bottom ELISA plate to be coated at 4° C. overnight. Non-specific binding was blocked with PBS containing 1% bovine serum albumin, and a serum sample was diluted 1:400 and was allowed to react at room temperature for 2 hours. Then, the plate was washed well, and anti-mouse IgE monoclonal antibody was diluted 1:300 and was allowed to react for 2 hours. Then, HRP-conjugated goat anti-rat IgG polyclonal antibody which was coupled to peroxidase was diluted 1:4000 and was allowed to react at room temperature for 1 hour, and then, was washed. For color development, 3,3′,5,5′-tetramethylbezidine substrate was allowed to react, and the spectroscopic absorbance was measured at 650 nm.
To measure IgE levels which are correlated with severity of asthma to examine the effect of homoegonol on asthma, IgE levels in serum and bronchoalveolar lavage fluid were measured according to the method in <Experimental Example 4>.

[2] = system: inflammatory cells in the airway mucosa; test: Inflammatory cell infiltration in airway mucosa, inflammatory index (H&E staining); details: asthma-induced mice, homoegonol study, scale 0-4
Method: as §1
Lungs removed from each individual were subjected to conventional formalin fixation and paraffin embedding, and permanent section slides of 4 μm thickness were prepared, and hematoxylin and eosin (H&E) staining was performed. After H&E staining, inflammatory index was measured from random five regions per section slide of each individual to calculate the mean value. Assessments were as follows: inflammatory index 0 is for the case that inflammatory cells are not observed around the bronchus; inflammatory index 1 is for the case that inflammatory cells are intermittently observed; inflammatory index 2 is for the case that thin inflammatory cell layers of one to two or three layers are observed around most of the bronchus; inflammatory index 3 is for the case that inflammatory cell layers of two or three to five or less layers are observed around most of the bronchus; and inflammatory index 4 is for the case that thick inflammatory cell layers of five or more layers are observed around most of the bronchus.
To examine the effect of homoegonol on asthma, lungs of which bronchoalveolar lavage was not performed were removed, and histopathological assessment was performed according to the method in <Experimental Example 7-1>. Since infiltration of inflammatory cells which are comprised of eosinophils, neutrophils, and macrophages are observed in an antigen-aroused bronchus, the present inventors tried to detect inflammatory cell infiltration.

goblet cells = test: Ratio of goblet cells to bronchial epithelial cells (PAS staining); details: asthma-induced mice, homoegonol study
Method: as §1
Lungs removed from each individual were subjected to conventional formalin fixation and paraffin embedding, and permanent section slides of 4 μm thickness were prepared, and periodic acid Schiff (PAS) staining was performed to determine goblet cells. Proliferation of goblet cells was assessed by measuring the ratio of goblet cells to bronchial epithelial cells.
In accordance with the method in <Experimental Example 7-2>, the ratio of goblet cells which were determined by periodic acid-Schiff staining to bronchial epithelial cells were measured to assess proliferation of goblet cells.

[3] = system: fibrosis in subsegmental bronchi; test: Fibrosis in subsegmental bronchi (Masson's trichrome staining); details: asthma-induced mice, homoegonol study; 30 mg/kg PO
Method: as §1

TGF-β1 = TGF-β1 in bronchoalveolar lavage fluid; details: asthma-induced mice, homoegonol study
Method: as §1
(§2) To examine the effect of homoegonol on airway remodeling, generation of TGF-β1 and IL-17 in bronchoalveolar lavage fluid was measured.

IL-17 = IL-17 in bronchoalveolar lavage fluid; details: asthma-induced mice, homoegonol study
Method: as §1, §2

COc1ccc(-c2cc3cc(CCCO)cc(OC)c3o2)cc1OC [homoegonol]
Number of cells, Other inflammatory cells ([1]; 7.5 mg/kg PO): 33.40 ± 2.3467 ×10^3 cells/mouse | Number of cells, Eosinophils ([1]; 7.5 mg/kg PO, 7.5 mg/kg): 12.80±2.50 ×10^3 cells/mouse | Number of cells, Total inflammatory cells ([1]; 7.5 mg/kg PO, 7.5 mg/kg): 42.80±7.2060 ×10^3 cells/mouse | Number of cells, Other inflammatory cells ([1]; 15 mg/kg PO): 30.00 ± 2.8267 ×10^3 cells/mouse | Number of cells, Eosinophils ([1]; 15 mg/kg PO, 15 mg/kg): 6.32±0.86 ×10^3 cells/mouse | Number of cells, Total inflammatory cells ([1]; 15 mg/kg PO, 15 mg/kg): 39.72±4.4400 ×10^3 cells/mouse | Number of cells, Other inflammatory cells ([1]; 30 mg/kg PO): 28.4 ± 3.1739 ×10^3 cells/mouse | Number of cells, Eosinophils ([1]; 30 mg/kg PO, 30 mg/kg): 5.48±2.02 ×10^3 cells/mouse | Number of cells, Total inflammatory cells ([1]; 30 mg/kg PO, 30 mg/kg): 33.88±8.1589 ×10^3 cells/mouse | Total IgE level in bronchoalveolar lavage fluid (ovalbumin-specific IgE; 7.5 mg/kg PO, 7.5 mg/kg): 65.5957 ± 11.6656 ng/mL | serum IgE levels (ovalbumin-specific IgE; 7.5 mg/kg PO): 19.22 ± 4.9287 µg/mL | Total serum IgE level (ovalbumin-specific IgE; 7.5 mg/kg PO): 10.34 ± 6.0548 µg/mL | Total IgE level in bronchoalveolar lavage fluid (ovalbumin-specific IgE; 15 mg/kg PO, 15 mg/kg): 48.4894 ± 4.1926 ng/mL | serum IgE levels (ovalbumin-specific IgE; 15 mg/kg PO): 10.74 ± 3.4612 µg/mL | Total serum IgE level (ovalbumin-specific IgE; 15 mg/kg PO): 9.94 ± 5.0656 µg/mL | Total IgE level in bronchoalveolar lavage fluid (ovalbumin-specific IgE; 30 mg/kg PO, 30 mg/kg): 23.8085 ± 3.3515 ng/mL | serum IgE levels (ovalbumin-specific IgE; 30 mg/kg PO): 8.14 ± 5.9682 µg/mL | Total serum IgE level (ovalbumin-specific IgE; 30 mg/kg PO): 8.62 ± 2.4844 µg/mL | Inflammatory index, peribronchiolar ([2]; 7.5 mg/kg PO, 7.5 mg/kg): 1.67±0.1491 | Inflammatory index, perivascular ([2]; 7.5 mg/kg PO, 7.5 mg/kg): 1.89±0.1791 | Inflammatory index, peribronchiolar ([2]; 15 mg/kg PO, 15 mg/kg): 1.40±0.1549 | Inflammatory index, perivascular ([2]; 15 mg/kg PO, 15 mg/kg): 1.70±0.1449 | Inflammatory index, peribronchiolar ([2]; 30 mg/kg PO, 30 mg/kg): 1.00±0.2449 | Inflammatory index, perivascular ([2]; 30 mg/kg PO, 30 mg/kg): 1.30±0.2025 | Goblet cells %/bronchial epithelial cell unit (goblet cells; 7.5 mg/kg PO, 7.5 mg/kg): 36.5600±11.5613% | Goblet cells %/bronchial epithelial cell unit (goblet cells; 15 mg/kg PO, 15 mg/kg): 32.4109±10.8037% | Goblet cells %/bronchial epithelial cell unit (goblet cells; 30 mg/kg PO, 30 mg/kg): 25.0956±3.4033% | area of a fibrosis stained region per 100 μm of a basement membrane perimeter [3]: 320.99 ± 46.2236 μm^2/100 μm of basement membrane | TGF-β1 concentrations in bronchoalveolar lavage fluid (TGF-β1; 7.5 mg/kg PO): 216.1875 ± 13.5904 pg/mL | TGF-β1 concentrations in bronchoalveolar lavage fluid (TGF-β1; 15 mg/kg PO): 190.4375 ± 13.0702 pg/mL | TGF-β1 concentrations in bronchoalveolar lavage fluid (TGF-β1; 30 mg/kg PO): 186.8125 ± 6.4551 pg/mL | IL-17 concentrations in bronchoalveolar lavage fluid (IL-17; 7.5 mg/kg PO): 70.3409 ± 14.2912 pg/mL | IL-17 concentrations in bronchoalveolar lavage fluid (IL-17; 15 mg/kg PO): 43.5682 ± 2.9102 pg/mL | IL-17 concentrations in bronchoalveolar lavage fluid (IL-17; 30 mg/kg PO): 27.3863 ± 5.7881 pg/mL
